Tests used:
[1] = In vitro human skin absorption, Franz diffusion cell: quantification in skin fractions (epidermis, dermis); assay type: in vitro ADME; conditions: emulsion 0.1 mg/mL, 200 μL, T24 h
From the text: The aim of this study was to evaluate the absorption of compound 11 applied to excised human skin.
In vitro method using a Franz diffusion cell allows measuring the diffusion of chemicals into and across skin.
The tested compound is applied to the surface of a human skin explant separating the two chambers of a Franz diffusion cell. The compound remains on the skin for a specified time under specified conditions. The receptor fluid is sampled at time points throughout the experiment and analyzed for the tested compound. The skin may also be fractioned for separate analysis in epidermis or dermis layers.
The transcutaneous absorption was measured on human skin collected from the abdominoplasty of a single donor. […]
The tested compounds were quantified, at T0 h and T24 h in the receptor solution bathing the inner surface of the skin (determination of flux), or at T24 h in the fractionated skin extracts (epidermis or dermis).
To prepare the extracts, the skin explant is firstly divided in dermis and epidermis layers, then 500 μL of methanol were added on each piece of skin and incubated in an ultrasonic bath for 4 hours. […] Secondly the quantification of compounds by LC-MS/MS method was realized on 100 μl of the previous preparation added with 1000 μl of ultrapure water and 10 μl of an internal standard […]
The skin extracts were prepared at T24 h and the quantification of compound 11 was performed. […]

human tyrosinase = test: HumanLike Tyrosinase Assay kit (Feldan), L-Tyrosine to dopachrome, OD at 490 nm; assay type: biochemical; conditions: for OD at 490 nm: 1.12 mM
Description: The efficacy of compound 16 was evaluated by the inhibition of human tyrosinase in tubo and compared to the compound 11.
The assay was performed with a ready-to-use kit from Feldan Inc (Canada): the HumanLike Tyrosinase Assay kit (ref A021-a-001Kit).
The protocol was performed as described in the instructions for use of the manufacturer. Briefly, this kit is intended for the determination of human tyrosinase activity in presence of different inhibitors. The kit measures the conversion of L-Tyrosine into a dopachrome complex absorbing at 490 nm. The time course of the assay is 20 minutes, after which the results are analyzed and compared.
The compounds 11 and 16 have been tested at a final concentration of 1.12 mM.
The measured absorbances at 490 nm are reported in the table 5 and plotted in function of time in the FIG. 1.
Moreover for each compound the efficacy as tyrosinase inhibitor was calculated using the following formula: […]

[2] = In vitro stability: hydroquinone released in various chemical conditions (HPLC-UV/DAD); assay type: physicochemical
Description: The stability of compound 11 was evaluated by the released of hydroquinone, which is a potentially toxic compound, in different chemical conditions (extreme conditions, simulating the application of these molecules on the skin) and it was compared to the deoxyarbutin.
This study involved different tests as degradation test and chemical stability (various chemical solutions, pH and temperatures).
Analytical Method (HPLC-UV/DAD Method)
Column Atlantis dC18 150 mm*4.6 mm*3 μm Waters, 30° C. Injection 50 μl, 25° C. λ: 220 nm, 265 nm, 285 nm. A-Acetonitrile B-Water; 0.8 ml/min; elution gradient: […]
This analytical method gave linear response for compound 11, Deoxyarbutin and Hydroquinone from 25 ng/mL to 1000 ng/mL. Dilution of samples had to be taken into account for each stability study to calculate the LLOQ of each compound.
The tested compounds are incubated in different solutions, at different times (see table 1). Then the analytical method was used to quantify remaining compounds and potential hydroquinone released (as possible degradation of compounds).
Hydroquinone (HQ) apparition is expressed as a percentage of initial compound 11 or Deoxyarbutin. The calculation was done in molar units and the limit of quantification fluctuates with the initial concentration.

## Oc1ccc(OC2CCCCC2(F)F)cc1 (racemic) [Compound 11]
[1]; DERMIS
  Quantity in skin extract: 5.1 μg/g of tissue
[1]; EPIDERMIS
  Quantity in skin extract: 22.3 μg/g of tissue
Human tyrosinase; time 0 min
  OD at 490 nm: 0.0000
Human tyrosinase; time 1 min
  OD at 490 nm: 0.0095
Human tyrosinase; time 2 min
  OD at 490 nm: 0.0190
Human tyrosinase; time 3 min
  OD at 490 nm: 0.0295
Human tyrosinase; time 4 min
  OD at 490 nm: 0.0400
Human tyrosinase; time 5 min
  OD at 490 nm: 0.0505
Human tyrosinase; time 6 min
  OD at 490 nm: 0.0610
Human tyrosinase; time 7 min
  OD at 490 nm: 0.0715
Human tyrosinase; time 8 min
  OD at 490 nm: 0.0825
Human tyrosinase; time 9 min
  OD at 490 nm: 0.0925
Human tyrosinase; time 10 min
  OD at 490 nm: 0.1035
Human tyrosinase; time 11 min
  OD at 490 nm: 0.1135
Human tyrosinase; time 12 min
  OD at 490 nm: 0.1245
Human tyrosinase; time 13 min
  OD at 490 nm: 0.1355
Human tyrosinase; time 14 min
  OD at 490 nm: 0.1465
Human tyrosinase; time 15 min
  OD at 490 nm: 0.1575
Human tyrosinase; time 16 min
  OD at 490 nm: 0.1685
Human tyrosinase; time 17 min
  OD at 490 nm: 0.1790
Human tyrosinase; time 18 min
  OD at 490 nm: 0.1900
Human tyrosinase; time 19 min
  OD at 490 nm: 0.2010
Human tyrosinase; time 20 min
  OD at 490 nm: 0.2120
Human tyrosinase; Compound at 1.12 mM, T = 20 min
  Inhibitor efficacy (%): 13.5%
[2]; Ringer's solution pH 5.5 at 70° C., 24 H
  % Hydroquinone released: 0.00%
[2]; Ringer's solution pH 8.5 at 70° C., 24 H
  % Hydroquinone released: 0.00%
[2]; Synthetic perspiration at RT, 48 H
  % Hydroquinone released: 0.00%
[2]; Water at room temperature, 14 Days
  % Hydroquinone released: 0.00%
[2]; whatever the tested conditions
  Hydroquinone release: never released

— patent US10351501B2, “Gem difluorocompounds as depigmenting or lightening agents” (TFCHEM, priority 2015, dated 2019)
